Source: PMC9276577, “SIRT1 pharmacological activation rescues vascular dysfunction and prevents thrombosis in MTHFR deficiency” (Cellular and Molecular Life Sciences: CMLS, 2022)

Tests used:
[1] = molecular target: T1, SIRT1 (Homo sapiens, UniProt Q96EB6); experiment: NMase-coupled fluorescence deacetylase assay (activation, AC50) on purified SIRT1; binding supported by tyrosine fluorescence quenching and CETSA in MCF7 cells; format: biochemical; parameters: SIRT1-GST purified from E. coli BL21 (full-length SIRT1 after thrombin cleavage for fluorescence quenching); details: read-out: EC50 (the source's name)
T1 sequence (Q96EB6 2-747): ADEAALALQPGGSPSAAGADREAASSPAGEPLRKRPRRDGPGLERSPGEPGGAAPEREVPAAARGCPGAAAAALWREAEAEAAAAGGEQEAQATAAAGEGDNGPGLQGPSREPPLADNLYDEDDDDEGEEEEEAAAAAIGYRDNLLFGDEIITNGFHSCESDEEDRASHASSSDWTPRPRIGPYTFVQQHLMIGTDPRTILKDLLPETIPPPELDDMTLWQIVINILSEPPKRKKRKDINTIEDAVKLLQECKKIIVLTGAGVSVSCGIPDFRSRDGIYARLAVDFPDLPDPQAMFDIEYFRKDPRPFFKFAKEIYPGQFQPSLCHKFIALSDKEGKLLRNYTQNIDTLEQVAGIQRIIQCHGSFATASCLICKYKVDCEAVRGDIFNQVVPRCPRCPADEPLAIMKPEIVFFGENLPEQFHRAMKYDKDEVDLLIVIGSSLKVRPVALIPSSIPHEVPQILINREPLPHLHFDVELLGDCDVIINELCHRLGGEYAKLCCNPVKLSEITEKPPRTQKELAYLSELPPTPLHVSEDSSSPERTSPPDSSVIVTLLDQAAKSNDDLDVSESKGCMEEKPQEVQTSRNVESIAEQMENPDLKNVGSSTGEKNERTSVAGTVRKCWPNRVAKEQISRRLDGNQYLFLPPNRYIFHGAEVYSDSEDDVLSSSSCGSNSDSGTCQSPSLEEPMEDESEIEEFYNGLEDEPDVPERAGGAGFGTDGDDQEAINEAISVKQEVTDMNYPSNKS

[2] = molecular target: T1, SIRT1; experiment: CETSA in MCF7 cells (Tm raised from […] °C to […] °C); format: cell-based; parameters: endogenous SIRT1 in MCF7 cells

Molecule: ISIDE11
- AC50 [1]: 20.11 ± 0.15 µM

Molecule: Oc1ccc(/C=C/c2cc(O)cc(O)c2)cc1 [RSV, resveratrol]
- CETSA in MCF7 cells (Tm raised from 46.5 °C to 51.4 °C) [2]: 51.4 °C
